Target: WDR5 (Homo sapiens, UniProt P61964)
Assay: Screening of putative WDR5 degraders by Western blot in MV4;11 and/or MIAPACA2 cells
Assay type: cell-based
Parameters: After WDR5 degrader treatment, cells were collected and lysed; endogenous in cells; host or cells: MV4;11 and/or MIAPACA2
Settings: summary of screening, FIGS. 6-10
Method: MV4;11 cells were treated with DMSO or indicated compounds at 0.1 μM and 0.5 μM for 18 hours. […]. MIAPACA2 cells were treated with DMSO or indicated compounds at 0.5 μM and 1.0 μM for 18 hours.
MIAPACA2 cells were treated with DMSO or indicated compounds at 0.1 μM and 0.5 μM for 18 hours.
MIAPACA2 cells were treated with DMSO or indicated compounds at 0.5 μM and 1.0 μM or at 1.0 μM and 10 μM for 18 hours.
MV4;11 cells were treated with DMSO or indicated compounds at 0.1 μM and 1.0 μM for 18 hours.
WDR5 degraders were dissolved in DMSO and DMSO with no degraders was used as the control. 1×10^6 MV4;11 cells or 1×10^5 MIAPACA2 or 2×10^5 Hela cells were seeded in 2 mL medium for each well in […].
For prescreening of all the compounds, each test compound was added to the medium at indicated concentrations. After 18 h treatment, cells were collected.
After WDR5 degrader treatment, cells were collected and lysed. Total cell lysates were used for western blot. The following primary antibodies were used: WDR5 (Santa Cruz), vinculin (Cell Signaling Technology), tubulin (Cell Signaling Technology), GAPDH (Santa Cruz). Blots were imaged using fluorescence-labeled secondary antibodies on ChemiDoc™ Imaging Systems.

Row | Compound | effective degradation of WDR5 in MV4;11 and/or MIAPACA2 cells
1 | Cc1ncsc1-c1ccc(CNC(=O)[C@@H]2C[C@@H](O)CN2C(=O)[C@@H](NC(=O)CCCCCCCCCCCC(=O)NCCN2CCN(Cc3cccc(-c4ccc(N5CCN(C)CC5)c(NC(=O)c5c[nH]c(=O)cc5C(F)(F)F)c4)c3)CC2)C(C)(C)C)cc1 [XF050-161, N^1-((S)-1-((2S,4R)-4-hydroxy-2-((4-(4-methylthiazol-5-yl)benzyl)carbamoyl)pyrrolidin-1-yl)-3,3-dimethyl-1-oxobutan-2-yl)-N^13-(2-(4-((4′-(4-methylpiperazin-1-yl)-3′-(6-oxo-4-(trifluoromethyl)-1,6-dihydropyridine-3-carboxamido)-[1,1′-biphenyl]-3-yl)methyl)piperazin-1-yl)ethyl)tridecanediamide] | able to effectively degrade WDR5
2 | Cc1ncsc1-c1ccc(CNC(=O)[C@@H]2C[C@@H](O)CN2C(=O)[C@@H](NC(=O)CCCCCCCCC(=O)N2CC=C(c3cc(NC(=O)c4c[nH]c(=O)cc4C(F)(F)F)c(N4C[C@@H](C)N(C)[C@@H](C)C4)cc3F)CC2)C(C)(C)C)cc1 [XF078-45, N-(4-fluoro-5-(1-(10-(((S)-1-((2S,4R)-4-hydroxy-2-((4-(4-methylthiazol-5-yl)benzyl)carbamoyl)pyrrolidin-1-yl)-3,3-dimethyl-1-oxobutan-2-yl)amino)-10-oxodecanoyl)-1,2,3,6-tetrahydropyridin-4-yl)-2-((3S,5R)-3,4,5-trimethylpiperazin-1-yl)phenyl)-6-oxo-4-(trifluoromethyl)-1,6-dihydropyridine-3-carboxamide] | able to effectively degrade WDR5
3 | Cc1ncsc1-c1ccc(CNC(=O)[C@@H]2C[C@@H](O)CN2C(=O)[C@@H](NC(=O)CCCCCCCCCC(=O)N2CC=C(c3cc(NC(=O)c4c[nH]c(=O)cc4C(F)(F)F)c(N4C[C@@H](C)N(C)[C@@H](C)C4)cc3F)CC2)C(C)(C)C)cc1 [XF078-46, N-(4-fluoro-5-(1-(11-(((S)-1-((2S,4R)-4-hydroxy-2-((4-(4-methylthiazol-5-yl)benzyl)carbamoyl)pyrrolidin-1-yl)-3,3-dimethyl-1-oxobutan-2-yl)amino)-11-oxoundecanoyl)-1,2,3,6-tetrahydropyridin-4-yl)-2-((3S,5R)-3,4,5-trimethylpiperazin-1-yl)phenyl)-6-oxo-4-(trifluoromethyl)-1,6-dihydropyridine-3-carboxamide] | able to effectively degrade WDR5
4 | Cc1ncsc1-c1ccc(CNC(=O)[C@@H]2C[C@@H](O)CN2C(=O)[C@@H](NC(=O)COCCNC(=O)CCC(=O)N2CCN(c3ccc(-c4cc(NC(=O)c5c[nH]c(=O)cc5C(F)(F)F)c(N5C[C@@H](C)N(C)[C@@H](C)C5)cc4F)cn3)CC2)C(C)(C)C)cc1 [XF067-140, N-(4-fluoro-5-(6-(4-(4-((2-(2-(((S)-1-((2S,4R)-4-hydroxy-2-((4-(4-methylthiazol-5-yl)benzyl)carbamoyl)pyrrolidin-1-yl)-3,3-dimethyl-1-oxobutan-2-yl)amino)-2-oxoethoxy)ethyl)amino)-4-oxobutanoyl)piperazin-1-yl)pyridin-3-yl)-2-((3S,5R)-3,4,5-trimethylpiperazin-1-yl)phenyl)-6-oxo-4-(trifluoromethyl)-1,6-dihydropyridine-3-carboxamide] | able to effectively degrade WDR5
5 | Cc1ncsc1-c1ccc(CNC(=O)[C@@H]2C[C@@H](O)CN2C(=O)[C@@H](NC(=O)COCCOCC(=O)N2CCN(Cc3cnc(N4CC=C(c5cc(NC(=O)c6c[nH]c(=O)cc6C(F)(F)F)c(N6C[C@@H](C)N(C)[C@@H](C)C6)cc5F)CC4)nc3)CC2)C(C)(C)C)cc1 [XF078-134, N-(4-fluoro-5-(1-(5-((4-(2-(2-(2-(((S)-1-((2S,4R)-4-hydroxy-2-((4-(4-methylthiazol-5-yl)benzyl)carbamoyl)pyrrolidin-1-yl)-3,3-dimethyl-1-oxobutan-2-yl)amino)-2-oxoethoxy)ethoxy)acetyl)piperazin-1-yl)methyl)pyrimidin-2-yl)-1,2,3,6-tetrahydropyridin-4-yl)-2-((3S,5R)-3,4,5-trimethylpiperazin-1-yl)phenyl)-6-oxo-4-(trifluoromethyl)-1,6-dihydropyridine-3-carboxamide] | able to effectively degrade WDR5
6 | Cc1ncsc1-c1ccc(CNC(=O)[C@@H]2C[C@@H](O)CN2C(=O)[C@@H](NC(=O)CCCCC(=O)NCCN2CCN(Cc3ccc(F)c(-c4ccc(N5C[C@@H](C)N(C)[C@@H](C)C5)c(NC(=O)c5c[nH]c(=O)cc5C(F)(F)F)c4)c3)CC2)C(C)(C)C)cc1 [XF078-12, N^1-(2-(4-((6-fluoro-3′-(6-oxo-4-(trifluoromethyl)-1,6-dihydropyridine-3-carboxamido)-4′-((3S,5R)-3,4,5-trimethylpiperazin-1-yl)-[1,1′-biphenyl]-3-yl)methyl)piperazin-1-yl)ethyl)-N^6-((S)-1-((2S,4R)-4-hydroxy-2-((4-(4-methylthiazol-5-yl)benzyl)carbamoyl)pyrrolidin-1-yl)-3,3-dimethyl-1-oxobutan-2-yl)adipamide] | able to effectively degrade WDR5
7 | Cc1ncsc1-c1ccc(CNC(=O)[C@@H]2C[C@@H](O)CN2C(=O)[C@@H](NC(=O)CCCCCCCCCC(=O)N2CCN(c3ccc(-c4cc(NC(=O)c5c[nH]c(=O)cc5C(F)(F)F)c(N5C[C@@H](C)N(C)[C@@H](C)C5)cc4F)cn3)CC2)C(C)(C)C)cc1 [XF067-133, N-(4-fluoro-5-(6-(4-(11-(((S)-1-((2S,4R)-4-hydroxy-2-((4-(4-methylthiazol-5-yl)benzyl)carbamoyl)pyrrolidin-1-yl)-3,3-dimethyl-1-oxobutan-2-yl)amino)-11-oxoundecanoyl)piperazin-1-yl)pyridin-3-yl)-2-((3S,5R)-3,4,5-trimethylpiperazin-1-yl)phenyl)-6-oxo-4-(trifluoromethyl)-1,6-dihydropyridine-3-carboxamide] | able to effectively degrade WDR5
8 | C[C@@H]1CN(c2ccc(-c3cc(CN4CCN(CCNC(=O)CCCCCCCNc5cccc6c5C(=O)N(C5CCC(=O)NC5=O)C6=O)CC4)ccc3F)cc2NC(=O)c2c[nH]c(=O)cc2C(F)(F)F)C[C@H](C)N1C (stereo partly drawn) [XF078-24, N-(5′-((4-(2-(8-((2-(2,6-dioxopiperidin-3-yl)-1,3-dioxoisoindolin-4-yl)amino)octanamido)ethyl)piperazin-1-yl)methyl)-2′-fluoro-4-((3S,5R)-3,4,5-trimethylpiperazin-1-yl)-[1,1′-biphenyl]-3-yl)-6-oxo-4-(trifluoromethyl)-1,6-dihydropyridine-3-carboxamide] | able to effectively degrade WDR5
9 | C[C@@H]1CN(c2ccc(-c3cc(CN4CCN(CCNC(=O)CCCNc5cccc6c5C(=O)N(C5CCC(=O)NC5=O)C6=O)CC4)ccc3F)cc2NC(=O)c2c[nH]c(=O)cc2C(F)(F)F)C[C@H](C)N1C (stereo partly drawn) [XF078-20, N-(5′-((4-(2-(4-((2-(2,6-dioxopiperidin-3-yl)-1,3-dioxoisoindolin-4-yl)amino)butanamido)ethyl)piperazin-1-yl)methyl)-2′-fluoro-4-((3S,5R)-3,4,5-trimethylpiperazin-1-yl)-[1,1′-biphenyl]-3-yl)-6-oxo-4-(trifluoromethyl)-1,6-dihydropyridine-3-carboxamide] | able to effectively degrade WDR5
10 | Cc1ncsc1-c1ccc(CNC(=O)[C@@H]2C[C@@H](O)CN2C(=O)[C@@H](NC(=O)CCCCCCCCC(=O)N2CCN(Cc3cnc(N4CC=C(c5cc(NC(=O)c6c[nH]c(=O)cc6C(F)(F)F)c(N6C[C@@H](C)N(C)[C@@H](C)C6)cc5F)CC4)nc3)CC2)C(C)(C)C)cc1 [XF078-147, N-(4-fluoro-5-(1-(5-((4-(10-(((S)-1-((2S,4R)-4-hydroxy-2-((4-(4-methylthiazol-5-yl)benzyl)carbamoyl)pyrrolidin-1-yl)-3,3-dimethyl-1-oxobutan-2-yl)amino)-10-oxodecanoyl)piperazin-1-yl)methyl)pyrimidin-2-yl)-1,2,3,6-tetrahydropyridin-4-yl)-2-((3S,5R)-3,4,5-trimethylpiperazin-1-yl)phenyl)-6-oxo-4-(trifluoromethyl)-1,6-dihydropyridine-3-carboxamide] | able to effectively degrade WDR5
11 | Cc1ncsc1-c1ccc(CNC(=O)[C@@H]2C[C@@H](O)CN2C(=O)[C@@H](NC(=O)CCOCCOCCOCCC(=O)N2CCN(Cc3cnc(N4CC=C(c5cc(NC(=O)c6c[nH]c(=O)cc6C(F)(F)F)c(N6C[C@@H](C)N(C)[C@@H](C)C6)cc5F)CC4)nc3)CC2)C(C)(C)C)cc1 [XF078-137, N-(4-fluoro-5-(1-(5-((4-((S)-15-((2S,4R)-4-hydroxy-2-((4-(4-methylthiazol-5-yl)benzyl)carbamoyl)pyrrolidine-1-carbonyl)-16,16-dimethyl-13-oxo-4,7,10-trioxa-14-azaheptadecanoyl)piperazin-1-yl)methyl)pyrimidin-2-yl)-1,2,3,6-tetrahydropyridin-4-yl)-2-((3S,5R)-3,4,5-trimethylpiperazin-1-yl)phenyl)-6-oxo-4-(trifluoromethyl)-1,6-dihydropyridine-3-carboxamide] | able to effectively degrade WDR5
